The record followed here is patent US7329651B2 (priority 2001, dated 2008).

Where two headings read alike, the source gives them in different places.

For series [1], the target named is T1, CB2 receptor (Mus musculus, UniProt P47936).
T1 construct: membranes were prepared from frozen mouse spleen; from tissue; host or cells: mouse spleen
As to the kind of experiment: biochemical. It counts as binding. Particulars: for Selectivity for CB2: ratio of CB1 Ki to CB2 Ki. The procedure: (§1) The prepared cannabinoid compounds were tested for CB2 receptor binding affinity and for CB1 receptor affinity (to determine selectivity for the CB2 receptor). As used herein, “binding affinity” is represented by the IC50 value which is the concentration of an analog required to occupy the 50% of the total number (Bmax) of the receptors. The lower the IC50 value, the higher the binding affinity. […] The binding affinities (Ki) are expressed in nanomoles (nM).
(§2) The treated membranes were subsequently used in the binding assay described below. Approximately 30 μg of membranes were incubated in silanized 96-well microtiter plate with TME containing 0.1% essentially fatty acid-free bovine serum albumin (BSA), 0.8 nM [^3H] CP-55,940, and various concentrations of test materials at 30° C. for 1 hour. The samples were immediately filtered using a Packard Filtermate 196 and Whatman GF/C filterplates and washed with wash buffer (TME) containing 0.5% BSA. Radioactivity was detected using MicroScint 20 scintillation cocktail added directly to the dried filterplates, and the filterplates were counted using a Packard Instruments Top-Count. Nonspecific binding was assessed using 100 nM CP-55,940. Data collected from three independent experiments performed with duplicate determinations was normalized between 100% and 0% specific binding for [^3H] CP-55,940, determined using buffer and 100 nM CP-55,940. The normalized data was analyzed using a 4-parameter nonlinear logistic equation to yield IC50 values. Data from at least two independent experiments performed in duplicate was used to calculate IC50 values which were converted to Ki values using the using the assumptions of Cheng et al; “Relationship Between the Inhibition Constant (Ki) and the concentration of Inhibitor which causes 50% Inhibition (IC50) of an Enzymatic Reaction”, Biochem. Pharmacol., 22, 3099-3102, (1973), which is incorporated by reference herein.
For the CB2 receptor binding studies, membranes were prepared from frozen mouse spleen essentially according to the procedure of P. R. Dodd et al; “A Rapid Method for Preparing Synaptosomes: Comparison with Alternative Procedures”, Brain Res., 226, 107-118 (1981) which is incorporated by reference herein. Silanized centrifuge tubes were used throughout to minimize receptor loss due to adsorption. The CB2 binding assay was conducted in the same manner as the CB1 binding assay. The binding affinities (Ki) were also expressed in nanomoles (nM).

Series [2] deals with T2, CB1 cannabinoid receptor (Rattus norvegicus, UniProt P20272).
T2 construct: membranes were prepared from rat forebrain membranes; from tissue; host or cells: rat forebrain
T2 sequence (P20272 whole entry): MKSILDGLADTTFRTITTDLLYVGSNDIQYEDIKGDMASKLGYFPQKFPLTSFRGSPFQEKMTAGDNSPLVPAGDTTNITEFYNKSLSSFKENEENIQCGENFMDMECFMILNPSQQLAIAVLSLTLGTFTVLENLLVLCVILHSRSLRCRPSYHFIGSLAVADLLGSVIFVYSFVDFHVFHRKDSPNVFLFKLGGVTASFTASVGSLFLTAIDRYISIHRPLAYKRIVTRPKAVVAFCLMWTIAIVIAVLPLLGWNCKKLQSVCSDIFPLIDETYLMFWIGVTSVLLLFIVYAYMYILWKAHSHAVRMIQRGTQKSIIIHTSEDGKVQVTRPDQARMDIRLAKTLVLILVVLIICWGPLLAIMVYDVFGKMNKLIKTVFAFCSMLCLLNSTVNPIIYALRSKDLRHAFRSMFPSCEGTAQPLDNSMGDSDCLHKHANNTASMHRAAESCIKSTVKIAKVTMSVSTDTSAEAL
Briefly: CB1 receptor binding, [3H] CP-55,940 displacement, rat forebrain membranes. As to the method:
as §1
For the CB1 receptor binding studies, membranes were prepared from rat forebrain membranes according to the procedure of P. R. Dodd et al; A Rapid Method for Preparing Synaptosomes: Comparison with Alternative Procedures, Brain Res., 107-118 (1981). The binding of the novel analogues to the CB1 cannabinoid receptor was assessed as described in W. A. Devane et al; Determination and Characterization of a Cannabinoid Receptor in a Rat Brain, Mol. Pharmacol., 34, 605-613 (1988) and A. Charalambous et al; “5′-azido ^8−THC: A Novel Photoaffinity Label for the Cannabinoid Receptor”, J. Med. Chem., 35, 3076-3079 (1992) with the following changes. The above articles are incorporated by reference herein.
Membranes, previously frozen at −80° C., were thawed on ice. To the stirred suspension was added three volumes of TME (25 mM Tris-HCl buffer, 5 mM MgCl2 and 1 mM EDTA) at a pH 7.4. The suspension was incubated at 40° C. for 30 min. At the end of the incubation, the membranes were pelleted and washed three times with TME.
as §2

Setting [3] is: mouse spleen membranes, [3H] CP-55,940, read-out: Ki(nM) CB2.
[4] abbreviates: rat forebrain membranes, 0.8 nM [3H] CP-55,940, read-out: Ki(nM) CB1.

T1 sequence (P47936 whole entry): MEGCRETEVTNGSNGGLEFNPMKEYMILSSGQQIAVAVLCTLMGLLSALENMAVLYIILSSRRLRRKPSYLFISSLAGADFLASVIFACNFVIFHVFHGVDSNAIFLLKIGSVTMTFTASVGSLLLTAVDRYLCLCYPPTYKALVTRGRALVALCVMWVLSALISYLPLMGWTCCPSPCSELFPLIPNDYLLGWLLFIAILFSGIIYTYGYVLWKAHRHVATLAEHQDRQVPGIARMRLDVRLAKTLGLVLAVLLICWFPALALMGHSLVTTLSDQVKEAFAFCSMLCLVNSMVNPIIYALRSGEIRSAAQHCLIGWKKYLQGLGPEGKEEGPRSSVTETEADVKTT

`CCOC(=O)C1=NN(C(=O)c2ccccc2I)C(C(=O)OCC)=NN1C(=O)c1ccccc1I`: the melting point – broadly, the temperature, or range, at which the solid turns liquid – is 186 to 187 °C.
As for `CCOC(=O)c1nnc(C(=O)OCC)c2c1[nH]c1ccccc12`, the melting point was in the range of 151 to 152 °C.
`COC(=O)C1=NN(c2ccccc2)C(C(=O)OC)=NN1c1ccccc1` [compound 1, Dimethyl 1,4-diphenyl-1,4-dihydro-1,2,4,5-tetrazine-3,6-dicarboxylate]: the melting point was 171 to 172 °C. In addition, the inhibition constant Ki (in general, the equilibrium dissociation constant of an inhibitor or competing ligand from its target) in series [1] (setting [3]) is 381 nM. For the same compound, in series [1], the “Selectivity for CB2” value worked out at 81. In addition, the Ki in series [2] (setting [4]) stood at 31000 nM.
For `CCCOC(=O)C1=NN(c2ccccc2)C(C(=O)OCCC)=NN1c1ccccc1` [compound 3, Dipropyl-1,4-diphenyl-1,4-dihydro-1,2,4,5-tetrazine-3,6-dicarboxylate], in that order: 82.5 to 83 °C, 23.3 nM, 27 and 618 nM.
On to `CC(=O)C1=NN(c2ccccc2)C(C(C)=O)=NN1c1ccccc1` [compound 4, 1,4-Diphenyl-1,4-dihydro-3,6-diacetyl-1,2,4,5-tetrazine], for which, in series [1], the Ki is 10000 nM and the “Selectivity for CB2” value was 1. Further, the inhibition constant (Ki) in series [2] (setting [4]) was 10000 nM.
With `NC(=O)C1=NN(c2ccccc2)C(C(N)=O)=NN1c1ccccc1` [compound 5], the Ki in series [1] (setting [3]) and in series [2] (setting [4]) was 10000 nM each time. For the same compound, the “Selectivity for CB2” value in series [1] is 1.
In turn, `CN(C)C(=O)C1=NN(c2ccccc2)C(C(N)=O)=NN1c1ccccc1` [compound 6, N,N-Dimethyl-1,4-diphenyl-1,4-dihydro-1,2,4,5-tetrazine-3,6-dicarboxylic di-amide] gave a melting point of 243 to 243.5 °C.
`CNC(=O)C1=NN(c2ccccc2)C(C(=O)NC)=NN1c1ccccc1` [compound 6]: the “Selectivity for CB2” value in series [1] turned out to be 1. In addition, in series [2] (setting [4]), the inhibition constant Ki worked out at 66000 nM.
The compound `CCN(CC)C(=O)C1=NN(c2ccccc2)C(C(N)=O)=NN1c1ccccc1` [compound 7, N,N-Diethyl-1,4-diphenyl-1,4-dihydro-1,2,4,5-tetrazine-3,6-dicarboxylic di-amide] displayed a melting point of 239 to 240 °C.
For the compound `CCNC(=O)C1=NN(c2ccccc2)C(C(=O)NCC)=NN1c1ccccc1` [compound 7], the “Selectivity for CB2” value in series [1] is recorded as 1. Besides, in series [2] (setting [4]), the Ki is 100000 nM.
For the compound `O=C(C1=NN(c2ccccc2)C(C(=O)N2CCCCC2)=NN1c1ccccc1)N1CCCCC1` [compound 9], the inhibition constant Ki in series [1] (setting [3]) is 221 nM; in series [2] (setting [4]), 9990 nM. Besides, in series [1], the “Selectivity for CB2” value is listed as 42.
As for `CC(CO)NC(=O)C1=NN(c2ccccc2)C(C(=O)NC(C)CO)=NN1c1ccccc1` (centres unmarked) [compound 10], the melting point fell in the range of 262 to 263 °C. For the same compound, the “Selectivity for CB2” value in series [1] was 1. Also, the inhibitory constant (Ki) in series [2] (setting [4]) was 100000 nM.
In the case of `CC1C(NC(=O)C2=NN(c3ccccc3)C(C(=O)NC3CC4CC(C3C)C4(C)C)=NN2c2ccccc2)CC2CC1C2(C)C` (centres unmarked) [compound 11], the “Selectivity for CB2” value in series [1] amounted to 1. For the same compound, in series [2], the affinity corresponds to a Ki of 100000 nM.
`CCOC(=O)C1=NN(c2ccccc2)C(C(C)=O)=NN1c1ccccc1` [compound 12, 1,4-Diphenyl-1,4-dihydro-1,2,4,5-tetrazine-3-aceto-6-carboxylic acid ethyl ester]: the Ki came to 327 nM in series [1] (setting [3]) and 7700 nM in series [2] (setting [4]). The “Selectivity for CB2” value in series [1] was determined as 24.
In the case of `CCOC(=O)C1=NN(c2ccccc2)C(C(=O)N2CCCCC2)=NN1c1ccccc1` [compound 13, 1,4-Diphenyl-1,4-dihydro-1,2,4,5-tetrazine-3-carboxylic N-isopinocampheyl amide-6-carboxylic ethyl ester], the inhibitory constant (Ki) came to 255 nM in series [1] (setting [3]) and 5040 nM in series [2] (setting [4]). In addition, the “Selectivity for CB2” value in series [1] is recorded as 20.
For `CCOC(=O)C1=NN(c2ccccc2)C(C(=O)NC2CC3CC(C2C)C3(C)C)=NN1c1ccccc1` (centres unmarked) [compound 14, 1,4-Diphenyl-1,4-dihydro-1,2,4,5-tetrazine-3-carboxylic N-piperidinyl amide-6-carboxylic acid ethyl ester], the values for the Ki in series [1] (setting [3]) and in series [2] were 805 nM and 2050 nM, respectively. Moreover, in series [1], the “Selectivity for CB2” value is listed as 2.6.
The compound `CCOC(=O)C1=NN(c2ccc([N+](=O)[O-])cc2)C(C(=O)OCC)=NN1c1ccc([N+](=O)[O-])cc1` [compound 15] returned a Ki in series [2] of 100000 nM.
For `CCOC(=O)C1=NN(c2ccc(Cl)cc2)C(C(=O)OCC)=NN1c1ccc(Cl)cc1` [compound 16, 1,4-Di-(4-chlorophenyl)-1,4-dihydro-1,2,4,5-tetrazine-3,6-dicarboxylic acid diethyl ester], the inhibition constant (Ki) in series [1] (setting [3]) worked out at 48 nM; in series [2] (setting [4]), 208 nM. Besides, in series [1], the “Selectivity for CB2” value is given as 4.3.
With `CCOC(=O)C1=NN(c2ccc(Br)cc2)C(C(=O)OCC)=NN1c1ccc(Br)cc1` [compound 17], the Ki in series [1] (setting [3]) was determined as 200 nM; in series [2] (setting [4]) it was 350 nM.
For `CCOC(=O)C1=NN(c2ccc(OC)cc2)C(C(=O)OCC)=NN1c1ccc(OC)cc1` [compound 18], the Ki in series [1] (setting [3]) stood at 72 nM; in series [2] (setting [4]), 4590 nM. In addition, the “Selectivity for CB2” value in series [1] is listed as 64.
The matching figures for `CCOC(=O)C1=NN(c2ccc(Cl)cc2Cl)C(C(=O)OCC)=NN1c1ccc(Cl)cc1Cl` [compound 19]: 10000 nM, 10000 nM and 1.
For the compound `CCOC(=O)C1=NN(c2cccc3ccccc23)C(C(=O)OCC)=NN1c1cccc2ccccc12` [compound 20, 1,4-Di-(α-naphthalene)-1,4-dihydro-1,2,4,5-tetrazine-3,6-dicarboxylic acid diethyl ester], the melting point lay within 129 to 130 °C. Moreover, the Ki in series [1] (setting [3]) worked out at 1910 nM. For the same compound, the “Selectivity for CB2” value in series [1] worked out at 524. The Ki in series [2] (setting [4]) is 1e+06 nM.
On to `CCOC(=O)C1=NN(C(=O)c2ccccc2)C(C(=O)OCC)=NN1C(=O)c1ccccc1` [compound 21, 1,4-Dibenzoyl-1,4-dihydro-1,2,4,5-tetrazine-3,6-dicarboxylic acid diethyl ester], for which the melting point is 133.5 to 134 °C. Moreover, the “Selectivity for CB2” value in series [1] turned out to be 1. For the same compound, the inhibitory constant (Ki) in series [2] (setting [4]) stood at 100000 nM.
Consider `CCOC(=O)C1=NN(c2ccc(Cl)cc2)C(C(=O)OCC)=NN1c1ccccc1` [compound 22, 1-(4-chlorophenyl)-4-phenyl-1,4-dihydro-1,2,4,5-tetrazine-3,6-dicarboxylic acid diethyl ester], for which the Ki in series [1] (setting [3]) came out at 43 nM; in series [2] (setting [4]), 1500 nM. The “Selectivity for CB2” value in series [1] turned out to be 34.
As to `CCOC(=O)C1=NN(c2ccc(Br)cc2)C(C(=O)OCC)=NN1c1ccc(Cl)cc1` [compound 23], the melting point lay in the range of 130 to 131 °C. Further, the Ki in series [1] (setting [3]) stood at 30 nM. For the same compound, in series [1], the “Selectivity for CB2” value came to 18. The Ki in series [2] (setting [4]) was found to be 542 nM.
On to `CCOC(=O)C1=NN(c2cccc3ccccc23)C(C(=O)OCC)=NN1c1ccccc1` [compound 24, 1-Phenyl-4-α-naphthalenyl-1,4-dihydro-1,2,4,5-tetrazine-3,6-dicarboxylic acid diethyl ester], for which the results for the Ki in series [1] (setting [3]) and in series [2] (setting [4]) were 182 nM and 7360 nM, respectively. The “Selectivity for CB2” value in series [1] is given as 40.
For “N,N-Dibutyl-1,4-diphenyl-1,4-dihydro-1,2,4,5-tetrazine-3,6-dicarboxylic di-amide [compound 8]”, in that order: 692 nM, 16000 nM and 23.
